# Counter-ions that a name gives are not always drawn.
# Biological target: T1, acyl-CoA: cholesterol acyltransferase (ACAT) (Mus musculus, UniProt Q61263)
# T1 construct: endogenous in cells; host or cells: J774.A1 murine macrophage-like cells
# T1 sequence (Q61263 1-540): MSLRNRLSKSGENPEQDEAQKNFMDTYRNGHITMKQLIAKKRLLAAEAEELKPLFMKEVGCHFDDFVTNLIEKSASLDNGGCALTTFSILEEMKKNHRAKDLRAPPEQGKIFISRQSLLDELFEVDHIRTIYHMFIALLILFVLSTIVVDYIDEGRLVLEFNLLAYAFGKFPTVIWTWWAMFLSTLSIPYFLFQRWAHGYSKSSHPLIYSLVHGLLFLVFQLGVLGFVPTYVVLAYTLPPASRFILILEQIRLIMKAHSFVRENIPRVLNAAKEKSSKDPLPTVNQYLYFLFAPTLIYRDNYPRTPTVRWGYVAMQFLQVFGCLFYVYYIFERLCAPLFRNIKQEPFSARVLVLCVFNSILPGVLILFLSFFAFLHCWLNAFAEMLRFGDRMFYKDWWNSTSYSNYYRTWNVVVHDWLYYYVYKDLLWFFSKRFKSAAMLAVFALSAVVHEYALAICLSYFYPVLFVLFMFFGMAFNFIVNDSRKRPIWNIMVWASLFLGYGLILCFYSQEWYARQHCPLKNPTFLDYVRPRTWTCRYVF
# Experiment: Assay of the inhibition of cholesterol esterification in mammalian cells (J774.A1 macrophages, 14C-oleic acid incorporation into cholesteryl ester, ac-LDL loaded)
# Type: cell-based
# Conditions: murine macrophage-like cell line J774.A1, ac-LDL loaded, 14C-oleic acid pulse; read-out: Cholesterol Esterification IC50 (concentration at which ACAT activity is inhibited by 50%)
# Protocol: The esterification of cholesterol was determined in the murine macrophage-like cell line J774.A1. Cells were seeded in 35 mm wells at a density of 300,000 cells per well in 2 mls of Dulbecco's Eagle Medium (DMEM) supplemented with 10% fetal bovine serum (FBS). Cells were incubated at 37° C. in an atmosphere of 5% CO2 and 93% humidity. After 24 hours the media was changed to 0.68 mls 10% FBS-DMEM containing 34 μg of acetylated human low density lipoprotein (ac-LDL) to increase the intracellular concentration of cholesterol and promote esterification. At 41 hours, various inhibitors were added to the cells in DMSO (10 μl/ml maximum). At 43 hours, the cells were pulsed with 0.1 mM ^14 C-oleic acid (10,000 dpm/nmol) complexed with BSA (bovine serum albumin) to follow cholesterol ester formation. The experiment was terminated at 45 hours by washing the monolayers 3 time with 3 ml of Tris-buffered saline at 4° C. The lipids were extracted by incubating the monolayers with 1.5 ml of hexane: isopropanol (3:2, v/v) for 30 min. under gentle agitation. During this period, 10,000 dpm ^3 H-cholesteryl linoleate and 10 μg of cholesteryl oleate were added as an internal standard and carrier respectively. The organic solvent was removed and the cells were washed with an additional 1.0 ml of hexane: isopropanol which was combined with the original extract. The cells were allowed to dry overnight, digested with 1.5 ml of 0.2N sodium hydroxide for 1 hour and an aliquot of the solubilized protein used for protein determination using the Lowry method. The organic extract was taken to dryness, the residue resuspended in 100 μl of chloroform and the lipids separated on silica gel impregnated glass fiber plates using a hexane: diethylether: acetic acid (170:30:1, v/v/v) solvent system. Individual lipids were visualized with iodine and the cholesteryl ester spot cut out and transferred to scintillation vials to determine the amount of radioactivity. The conversion of oleic acid to cholesteryl ester in the control averaged […]/hour/mg protein and was increased upon the addition of ac-LDL to about […]/hour/mg protein. The inhibition of esterification by the compounds is shown in Table 2; the data are expressed as the concentration at which ACAT activity is inhibited by 50% (IC50).
row,IC50,SMILES
1,37 nM,"COC(=O)[C@H](CCCCNC(=O)OCc1ccccc1)NC(=O)CCCSc1nc(-c2ccc(OC)cc2)c(-c2ccc(OC)cc2)[nH]1 [Example 1, N2-[4-[4,5-bis(4-methoxyphenyl)-1H-imidazol-2-ylthio]-1-oxobutyl]-N6-[(phenylmethoxy)carbonyl]-L-lysine, methyl ester]"
2,601 nM,"COC(=O)[C@H](CCCCNC(=O)NCc1ccccc1)NC(=O)CCCSc1nc(-c2ccc(OC)cc2)c(-c2ccc(OC)cc2)[nH]1 [Example 4, N2-[4-[4,5-bis(4-methoxyphenyl)-1H-imidazol-2-ylthio]-1-oxobutyl]-N6-[(phenylmethyl)-aminocarbonyl]-L-lysine, methyl ester]"
3,4620 nM,"CCCCCC(=CCCCCSc1nc(-c2ccccc2)c(-c2ccccc2)[nH]1)C(=O)OCC [Example 10, ethyl, 7-(4,5-diphenyl-1H-imidazol-2-ylthio)-2-pentyl-2-heptenoate]"
4,386 nM,"COC(=O)[C@H](CCCCNC(=O)C12CC3CC(CC(C3)C1)C2)NC(=O)CCCSc1nc(-c2ccc(OC)cc2)c(-c2ccc(OC)cc2)[nH]1 [Example 3, N6-(1-adamantylcarbonyl)-N2-[4-[4,5-bis(4-methoxyphenyl)-1H-imidazol-2-ylthio]-1-oxobutyl]-L-lysine, methyl ester]"
5,650 nM,"CCCC[C@H](NC(=O)CCCSc1nc(-c2ccc(OC)cc2)c(-c2ccc(OC)cc2)[nH]1)C(=O)OC [Example 9, N-[4-[4,5-bis(4-methoxyphenyl)-1H-imidazol-2-ylthio]-1-oxobutyl]-norleucine, methyl ester]"
6,1100 nM,"COc1ccc(-c2nc(SCCCC(=O)N[C@@H](CCCCNC(=O)OCc3ccccc3)C(=O)NC(C)C)[nH]c2-c2ccc(OC)cc2)cc1 [Example 7, phenylmethyl, (S)-[5-[[4-[4,5-bis(4-methoxyphenyl)-1H-imidazol-2-ylthio]-1-oxobutyl]amino]-6-[(1-methylethyl)amino]-6-oxohexyl]carbamate]"
7,13400 nM,"CCCCCC(=CCCCCSc1nc(-c2ccccc2)c(-c2ccccc2)[nH]1)C(=O)O [Example 11, 7-(4,5-diphenyl-1H-imidazol-2-ylthio)-2-pentyl-2-heptenoic acid]"
8,100000 nM,"COC(=O)[C@H](CCCCN)NC(=O)CCCSc1nc(-c2ccc(OC)cc2)c(-c2ccc(OC)cc2)[nH]1 [Example 2, N2-[4-[4,5-bis(4-methoxyphenyl)-1H-imidazol-2-ylthio]-1-oxobutyl]-L-lysine, methyl ester hydrobromide]"
9,10300 nM,"COC(=O)[C@H](CCCCNC(C)=O)NC(=O)CCCSc1nc(-c2ccc(OC)cc2)c(-c2ccc(OC)cc2)[nH]1 [Example 6, N6-acetyl-N2-[4-[4,5-bis(4-methoxyphenyl)-1H-imidazol-2-ylthio]-1-oxobutyl]-L-lysine, methyl ester]"
10,7150 nM,"COC(=O)[C@H](CCCCNC(C)=O)NC(=O)CCCSc1nc(-c2ccc(OC)cc2)c(-c2ccc(OC)cc2)n1C(C)=O [Example 5, N6-acetyl-N2-[4-[1-acetyl-4,5-bis(4-methoxyphenyl)-1H-imidazol-2-ylthio]-1-oxobutyl]-L-lysine, methyl ester]"
11,4.9 nM,"COC(=O)[C@H](CCCCNC(=O)OCc1ccccc1)NC(=O)CCCSc1nc(-c2ccc(N(C)C)cc2)c(-c2ccc(N(C)C)cc2)[nH]1 [Example 8, N2-[4-[4,5-bis[4-(dimethylamino)phenyl] -1H-imidazol-2-ylthio]-1-oxobutyl]-N6-[(phenylmethoxy)carbonyl]-L-lysine, methylester]"

# — patent publication US5179117A, “Antihypercholesterolemic 2-substituted imidazoles” (Du Pont Merck Pharmaceutical Company, priority 1991, dated 1993)
